Tests used:
Test in all cases: relative viability (nuclei count vs DMSO), 5 days (fraction); higher = more cells survive
[1] = compound: C1=CC=C2C(=C1)C=CC(=C2SSC3=C(C=CC4=CC=CC=C43)O)O [IPA-3] + CCNC(=O)c1noc(-c2cc(C(C)C)c(O)cc2O)c1-c1ccc(CN2CCOCC2)cc1 [Luminespib] (partner 0.01 µM)
In short: (§1)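 Relative viability was taken as the ratio of nuclei in treated wells to nuclei in vehicle wells. Lung cancer cell lines in 1536-well plates received compounds by pin tool one day after seeding, either one drug alone or a fixed anchor-drug dose plus five library-drug doses (not always all listed) in √10 steps. Nuclei were counted on 4× images after 5 days of treatment, and values are medians of duplicate plates.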

[2] = compound: C1=CC=C2C(=C1)C=CC(=C2SSC3=C(C=CC4=CC=CC=C43)O)O [IPA-3] + C[C@@H](Oc1cc(-c2cnn(C3CCNCC3)c2)cnc1N)c1c(Cl)ccc(F)c1Cl [Crizotinib] (partner 1 µM)
In short: as §1

[3] = compound: C1=CC=C2C(=C1)C=CC(=C2SSC3=C(C=CC4=CC=CC=C43)O)O [IPA-3] + NC(=O)Nc1cc(-c2cccc(F)c2)sc1C(=O)N[C@H]1CCCNC1 [AZD7762] (partner 0.2 µM)
In short: as §1

[4] = compound: Cc1ccc(-n2nc(C(C)(C)C)cc2NC(=O)Nc2ccc(OCCN3CCOCC3)c3ccccc23)cc1 [Doramapimod] + CS(=O)(=O)CCNCc1ccc(-c2ccc3ncnc(Nc4ccc(OCc5cccc(F)c5)c(Cl)c4)c3c2)o1 [Lapatinib] (partner 2 µM)
In short: as §1

Cell Line	relative viability ([1]; first compound 0.2 µM)	relative viability ([1]; first compound 0.6325 µM)	relative viability ([1]; first compound 2 µM)	relative viability ([1]; first compound 6.325 µM)	relative viability ([1]; first compound 20 µM)	relative viability ([2]; first compound 0.2 µM)	relative viability ([2]; first compound 0.6325 µM)	relative viability ([2]; first compound 2 µM)	relative viability ([2]; first compound 6.325 µM)	relative viability ([2]; first compound 20 µM)	relative viability ([3]; first compound 0.2 µM)	relative viability ([3]; first compound 0.6325 µM)	relative viability ([3]; first compound 2 µM)	relative viability ([3]; first compound 6.325 µM)	relative viability ([3]; first compound 20 µM)	relative viability ([4]; first compound 0.02 µM)	relative viability ([4]; first compound 0.06325 µM)	relative viability ([4]; first compound 0.2 µM)	relative viability ([4]; first compound 0.6325 µM)	relative viability ([4]; first compound 2 µM)
NCI-H1355	0.889	0.677	0.719	0.702	0.757	1.21	0.999	0.778	1.07	1.11	0.807	0.764	0.73	0.827	0.719	0.972	0.992	0.964	0.95	0.952
EKVX	0.826	0.781	0.867	0.938	1.01	1.24	0.965	0.951	0.799	1.22	0.858	0.708	0.72	0.654	0.744	0.194	0.189	0.202	0.251	0.59
NCI-H441	0.401	0.29	0.407	0.324	0.422	0.859	0.635	0.804	0.659	0.723	1.32	0.972	1.33	1.21	1.22	–	–	–	–	–
NCI-H1975	0.236	0.189	0.213	0.19	0.365	1.21	0.896	0.968	0.883	0.952	0.825	0.731	0.778	0.868	0.775	0.937	0.947	0.898	1.23	0.901
HCC-78	–	–	–	–	–	0.341	0.341	0.365	0.322	0.399	0.712	0.625	0.671	0.697	0.904	0.745	0.936	0.79	0.837	0.885
NCI-H2085	0.475	0.411	0.502	0.432	0.5	0.89	0.912	0.876	0.931	0.995	1.11	0.956	1.02	0.893	1.21	0.79	0.764	0.749	0.836	0.707
H3255	1.03	0.757	0.782	0.871	0.889	1.11	0.86	0.962	0.749	1.03	1.03	0.919	0.865	0.912	1	0.234	0.233	0.244	0.241	0.267
NCI-H2087	0.169	0.14	0.183	0.197	0.167	0.955	0.755	0.9	0.791	0.957	1.52	1.29	1.43	1.07	1.35	1.06	1.11	1.02	0.869	0.961
LC-2-ad	1.21	1.06	1.07	1.04	1.05	0.499	0.523	0.419	0.477	0.488	0.896	0.873	0.899	0.897	0.96	0.87	1.03	1.1	1.05	0.643
EBC-1	–	–	–	–	–	0.188	0.186	0.168	0.195	0.193	–	–	–	–	–	0.255	0.198	0.17	0.209	0.197
NCI-H1563	0.514	0.526	0.532	0.512	0.437	0.899	0.891	0.938	1.11	1.02	–	–	–	–	–	0.935	0.923	1.04	0.681	0.907
COR-L 105	0.866	0.858	0.771	0.826	0.97	0.954	0.757	0.704	0.788	0.964	–	–	–	–	–	0.368	0.385	0.37	0.336	0.367
NCI-H520	0.213	0.3	0.266	0.244	0.247	0.962	0.803	0.682	0.74	0.919	–	–	–	–	–	0.828	0.865	0.945	0.807	0.629
NCI-H2342	0.701	0.677	0.747	0.802	0.765	–	–	–	–	–	0.429	0.563	0.502	0.681	0.542	–	–	–	–	–
NCI-H1299	–	–	–	–	–	0.974	0.935	0.96	0.928	0.961	–	–	–	–	–	0.991	0.952	0.956	0.972	0.925
NCI-H1395	0.726	0.671	0.6	0.601	0.699	–	–	–	–	–	0.377	0.413	0.423	0.373	0.345	1.38	1.13	1.05	0.913	0.818
NCI-H2009	1.06	1.04	1.07	0.941	1.06	1.12	1	1.04	0.915	0.924	–	–	–	–	–	0.95	0.952	1.13	0.234	0.888
Calu-6	–	–	–	–	–	1.06	0.75	0.81	0.795	0.966	–	–	–	–	–	1.06	1.13	1.17	1.19	0.985
NCI-H1703	–	–	–	–	–	0.819	0.593	0.757	0.669	0.469	0.119	0.121	0.126	0.145	0.133	1.11	0.983	0.949	0.987	0.716

Cell Line	relative viability ([1]; first compound 0.2 µM)	relative viability ([1]; first compound 0.6325 µM)	relative viability ([1]; first compound 2 µM)	relative viability ([1]; first compound 6.325 µM)	relative viability ([1]; first compound 20 µM)	relative viability ([2]; first compound 0.2 µM)	relative viability ([2]; first compound 0.6325 µM)	relative viability ([2]; first compound 2 µM)	relative viability ([2]; first compound 6.325 µM)	relative viability ([2]; first compound 20 µM)	relative viability ([3]; first compound 0.2 µM)	relative viability ([3]; first compound 0.6325 µM)	relative viability ([3]; first compound 2 µM)	relative viability ([3]; first compound 6.325 µM)	relative viability ([3]; first compound 20 µM)	relative viability ([4]; first compound 0.02 µM)	relative viability ([4]; first compound 0.06325 µM)	relative viability ([4]; first compound 0.2 µM)	relative viability ([4]; first compound 0.6325 µM)	relative viability ([4]; first compound 2 µM)
NCI-H1650	0.193	0.179	0.218	0.208	0.191	1.04	0.816	1.14	0.938	1.28	–	–	–	–	–	0.665	0.736	0.795	0.247	0.786
NCI-H1648	–	–	–	–	–	–	–	–	–	–	0.673	0.863	0.751	0.621	0.825	–	–	–	–	–
COR-L23	0.866	0.627	0.725	0.643	0.48	0.695	0.699	0.682	0.604	0.601	–	–	–	–	–	1.09	1.1	0.99	1.01	0.91
ChaGo-K-1	0.734	0.539	0.58	0.632	0.58	1.32	1.08	1.17	1.09	1.23	0.986	0.908	0.859	0.952	0.946	–	–	–	–	–
NCI-H1623	0.574	0.481	0.675	0.516	0.556	–	–	–	–	–	–	–	–	–	–	–	–	–	–	–
NCI-H2228	0.155	0.181	0.183	0.175	0.145	0.437	0.383	0.439	0.376	0.597	–	–	–	–	–	1.12	0.926	1.12	0.933	1.09
NCI-H661	0.911	0.874	0.919	0.866	0.921	1.06	0.847	1.08	0.988	1.03	–	–	–	–	–	0.477	0.438	0.48	0.588	0.413
HCC-366	–	–	–	–	–	0.697	0.564	0.617	0.521	0.618	0.443	0.337	0.334	0.432	0.316	1.08	1.08	1.14	1.03	1.03
SK-LU-1	0.207	0.17	0.225	0.161	0.228	1.27	–	0.929	0.823	0.89	–	–	–	–	–	0.975	0.947	0.971	0.806	0.762
SW 1573	0.139	0.215	0.459	0.158	0.0643	0.802	0.814	0.933	0.872	0.811	–	–	–	–	–	0.982	0.939	0.897	1.04	1.2
NCI-H522	1.34	1.05	1.25	1.05	1.07	–	–	–	–	–	0.974	0.809	0.759	1.02	0.91	–	–	–	–	–
SW 900	0.211	0.184	0.165	0.181	0.212	–	–	–	–	–	0.823	0.64	0.631	0.605	0.786	–	–	–	–	–
NCI-H2023	0.93	0.617	0.674	0.712	0.693	0.714	0.58	0.809	0.735	0.893	–	–	–	–	–	0.79	0.636	0.78	0.105	0.807
SK-MES-1	0.753	0.691	0.831	0.782	0.808	0.981	1	1.13	0.94	0.87	–	–	–	–	–	0.455	0.453	0.389	0.451	0.376
NCI-H1793	0.192	0.381	0.14	0.462	0.16	–	–	–	–	–	0.56	0.526	0.424	0.641	0.527	0.514	0.89	0.515	0.678	0.82
IA-LM	–	–	–	–	–	1.25	0.683	0.904	0.553	0.555	–	–	–	–	–	0.897	–	0.841	0.763	0.669
A549	–	–	–	–	–	0.886	0.76	0.745	0.819	0.89	–	–	–	–	–	0.827	0.989	0.932	1.24	0.895
LCLC-103H	1.09	1	0.916	0.929	0.926	1.07	0.947	1.03	1.15	1.1	0.862	0.814	0.744	0.788	0.872	–	–	–	–	–
